{"source": "ChEMBL document CHEMBL3886283", "about": "“Cycloalkyl and heterocycloalkyl compounds as orexin receptor antagonists” (2015)", "key": {"Orexin receptor type 2": {"target": "T1, Orexin receptor type 2 (Homo sapiens, UniProt O43614)", "T1 sequence (O43614 whole entry)": "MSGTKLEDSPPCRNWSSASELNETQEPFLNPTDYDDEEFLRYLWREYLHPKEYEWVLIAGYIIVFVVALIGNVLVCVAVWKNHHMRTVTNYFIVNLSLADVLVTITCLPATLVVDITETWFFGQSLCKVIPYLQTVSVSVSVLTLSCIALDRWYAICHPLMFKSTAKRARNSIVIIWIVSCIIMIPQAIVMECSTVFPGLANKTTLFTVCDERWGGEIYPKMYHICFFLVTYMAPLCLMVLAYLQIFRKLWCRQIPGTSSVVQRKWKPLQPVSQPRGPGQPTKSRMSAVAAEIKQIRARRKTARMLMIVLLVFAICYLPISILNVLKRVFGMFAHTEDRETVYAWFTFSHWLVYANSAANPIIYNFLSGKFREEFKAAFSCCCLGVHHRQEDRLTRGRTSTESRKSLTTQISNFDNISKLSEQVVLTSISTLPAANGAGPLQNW", "format": "functional, cell-based, RBL-2H3"}, "[1]": {"target": "T2, Orexin/Hypocretin receptor type 1 (Homo sapiens, UniProt O43613)", "T2 sequence (O43613 whole entry)": "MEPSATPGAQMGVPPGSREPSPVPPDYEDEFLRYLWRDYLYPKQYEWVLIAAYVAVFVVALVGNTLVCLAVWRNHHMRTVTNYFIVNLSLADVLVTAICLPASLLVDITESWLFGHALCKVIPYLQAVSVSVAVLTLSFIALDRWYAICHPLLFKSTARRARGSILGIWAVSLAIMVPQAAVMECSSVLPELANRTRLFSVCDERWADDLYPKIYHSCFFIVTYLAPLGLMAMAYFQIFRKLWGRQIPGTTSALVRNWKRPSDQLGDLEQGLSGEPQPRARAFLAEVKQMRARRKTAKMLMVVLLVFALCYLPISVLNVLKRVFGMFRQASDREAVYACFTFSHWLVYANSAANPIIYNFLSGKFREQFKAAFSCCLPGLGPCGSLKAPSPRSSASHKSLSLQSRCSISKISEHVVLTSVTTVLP", "format": "functional, cell-based, RBL-2H3"}}}
{"compound": "COc1cccc(Br)c1C(=O)N[C@H]1CCC[C@@H]1Nc1cnc(C(F)(F)F)cn1", "values": [{"measurement": "IC50", "setting": "Orexin receptor type 2", "value": "> 10000", "unit": "nM"}, {"measurement": "IC50", "setting": "[1]", "value": 367, "unit": "nM"}]}
{"compound": "Cc1ccc(-n2nccn2)c(C(=O)N[C@H]2CCC[C@@H]2Nc2ccc(Cl)cn2)c1", "values": [{"measurement": "IC50", "setting": "Orexin receptor type 2", "value": "> 10000", "unit": "nM"}, {"measurement": "IC50", "setting": "[1]", "value": 270, "unit": "nM"}]}
{"compound": "O=C(N[C@H]1CCC[C@@H]1Nc1ccc(OC(F)(F)F)cn1)c1cc(Cl)ccc1-n1nccn1", "values": [{"measurement": "IC50", "setting": "Orexin receptor type 2", "value": "> 10000", "unit": "nM"}, {"measurement": "IC50", "setting": "[1]", "value": 406, "unit": "nM"}]}
